Measurements: patent US20110111515A1, “REAGENT FOR MEASUREMENT OF REACTIVE OXYGEN” (THE UNIVERSITY OF TOKYO, priority 2008, published 2011)

Key:
Format in all cases: physicochemical
[1] = Change of absorbance at maximum absorption wavelength after reaction with superoxide anion (Example 2); details: 10 μM dye in 0.1 M phosphate buffer; xanthine oxidase 4 mU, xanthine 33 μM; FIG. 2
Protocol: (§1) Cy5, Cy7, Compound 2 (cyanine compound constituting the second cyanine compound residue) and Compound 3 (cyanine compound constituting the first cyanine compound residue), the latter two of which were obtained above, were reacted with hydroxyl radical, peroxynitrite, hypochlorite ion, and superoxide anion, and change of absorbance at the maximum absorption wavelength was measured. For the measurement, 10 μM solutions of Cy5, Cy7, Compound 2, and Compound 3 in 0.1 M phosphate buffer were prepared, and the measurement was performed with the prepared solutions under the following conditions.
(§2) Xanthine oxidase and xanthine were added to final concentrations of 4 mU and 33 μM, respectively.
(§3) In the graph, the test results for those reactive oxygen species are indicated in the order of Cy5, Compound 2, Cy7, and Compound 3 from the left.

[2] = Change of absorbance at maximum absorption wavelength after reaction with reactive oxygen species (Example 2); details: 10 μM dye in 0.1 M phosphate buffer; all reactive oxygen species (hydroxyl radical, peroxynitrite, hypochlorite ion, superoxide anion); FIG. 2
Protocol: as §1
Hydrogen peroxide and iron(II) perchlorate were added to final concentrations of 1 mM and 50 μM, respectively.
Peroxynitrite was added to a final concentration of 10 μM.
Hypochlorite ions were added to a final concentration of 10 μM.
as §2, §3

[3] = Oxidation potential (Ep) of cyanine dyes, saturated calomel electrode as reference; details: saturated calomel electrode (SCE) as reference electrode

Row | Compound | Decrease of absorbance at maximum absorption wavelength for superoxide anion [1] | Decrease of absorbance at maximum absorption wavelength upon addition of reactive oxygen species [2] | Ep [3]
1 | CC1(C)C(/C=C/C=C/C=C2/N(CCC(=O)O)c3ccc(S(=O)(=O)O)cc3C2(C)C)=[N+](CCC(=O)O)c2ccc(S(=O)(=O)O)cc21 [Compound 2] | no decrease of absorbance | the smallest decrease of absorbance | 0.658 V vs SCE
2 | CN1/C(=C/C=C2\CCCC(/C=C/C3=[N+](C)c4ccccc4C3(C)C)=C2SCCC(=O)O)C(C)(C)c2ccccc21 [Compound 3] |  | larger decrease of absorbance than did Cy7 | 0.333 V vs SCE
3 | CCN1C(=CC=CC=CC=CC2=[N+](CCCCCC(=O)O)c3ccc(S(=O)(=O)O)cc3C2(C)C)C(C)(C)c2cc(S(=O)(=O)[O-])ccc21 [Cy7, reference compound] |  | larger decrease of absorbance than did Cy5 | 0.476 V vs SCE
4 | Cy5 [reference compound] |  |  | 0.516 V vs SCE
